Experimental data as given in US20250382305A1 (PTC THERAPEUTICS, INC., priority 2022, published 2025).

Assays:
[1] = system: Total ATXN3 (tATXN3) protein; experiment: Endogenous Total ATXN3 (tATXN3) Protein Assay (MSD immunoassay of cell lysates); assay type: cell-based; conditions: average IC50, total ATXN3 protein in cell lysate after 48 h with compound (Table 1)
Summary of the method: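 Cells in DMEM/10% FBS were plated at 10,000 per well onto 7-point, 3.16-fold compound dilutions in duplicate for 48 h at 37° C, then lysed. Total ATXN3 in lysates was measured by MSD sandwich immunoassay: mouse anti-ATXN3 capture, rabbit anti-ATXN3 detection, SULFO-TAG anti-rabbit. Average IC50 was reported in star bins.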

ATXN3 pre-mRNA = experiment: RT-qPCR Assay to Quantify Exon 4 Skipping in ATXN3 pre-mRNA in Cells; assay type: cell-based; conditions: percent exon 4 skipping in ATXN3 pre-mRNA, RT-qPCR of cell lysates; average IC50
Summary of the method: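 Cells plated at 10,000/well onto a 7-point, 3.16-fold DMSO dilution series (duplicates), incubated 24 h at 37 °C, then lysed. Exon 4 skipping measured by one-step RT-qPCR (48 °C RT, 40 cycles); IC50 interpolated from dose-response fit of percent skipping.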

IC50 [1]	IC50 (ATXN3 pre-mRNA)	Compound
30 to 300 nM	30 to 300 nM	N[C@@H]1CCCC[C@H]1c1sc2c(NCc3cccs3)cc(Cl)nc2c1Br [Compound 54, 2-((1R,2R)-2-aminocyclohexyl)-3-bromo-5-chloro-N-(thiophen-2-ylmethyl)thieno[3,2-b]pyridin-7-amine]
30 to 300 nM	30 to 300 nM	N[C@H]1CCCC[C@@H]1c1sc2c(NCc3cccs3)cc(Cl)nc2c1Br [Compound 55, 2-((1S,2S)-2-aminocyclohexyl)-3-bromo-5-chloro-N-(thiophen-2-ylmethyl)thieno[3,2-b]pyridin-7-amine]
> 1000 nM	300 to 1000 nM	Cc1c([C@@H]2CCCC[C@H]2N)sc2c(NCc3ccco3)nc(Cl)nc12 [Compound 59, 6-((1R,2R)-2-aminocyclohexyl)-2-chloro-N-(furan-2-ylmethyl)-7-methylthieno[3,2-d]pyrimidin-4-amine]
≤ 30 nM	≤ 30 nM	Cc1c([C@H]2CCCC[C@@H]2N)sc2c(NCc3ccco3)nc(Cl)nc12 [Compound 60, 6-((1S,2S)-2-aminocyclohexyl)-2-chloro-N-(furan-2-ylmethyl)-7-methylthieno[3,2-d]pyrimidin-4-amine]
> 1000 nM	> 1000 nM	Cc1c([C@@H]2OCCC[C@H]2N)sc2c(NCc3ccco3)nc(Cl)nc12 [Compound 61, 6-((2R,3R)-3-aminotetrahydro-2H-pyran-2-yl)-2-chloro-N-(furan-2-ylmethyl)-7-methylthieno[3,2-d]pyrimidin-4-amine]
30 to 300 nM	≤ 30 nM	Cc1c([C@H]2OCCC[C@@H]2N)sc2c(NCc3ccco3)nc(Cl)nc12 [Compound 62, 6-((2S,3S)-3-aminotetrahydro-2H-pyran-2-yl)-2-chloro-N-(furan-2-ylmethyl)-7-methylthieno[3,2-d]pyrimidin-4-amine]
≤ 30 nM	≤ 30 nM	N[C@H]1CCCC[C@@H]1c1sc2c(NCc3ccccc3)nc(Cl)nc2c1Br [Compound 65, 6-[(1S,2S)-2-aminocyclohexyl]-N-benzyl-7-bromo-2-chloro-thieno[3,2-d]pyrimidin-4-amine]
> 1000 nM	> 1000 nM	N[C@@H]1CCCC[C@H]1c1sc2c(NCc3ccccc3)nc(Cl)nc2c1Br [Compound 66, 6-((1R,2R)-2-aminocyclohexyl)-N-benzyl-7-bromo-2-chlorothieno[3,2-d]pyrimidin-4-amine]
300 to 1000 nM	300 to 1000 nM	N[C@@H]1CCCC[C@H]1c1sc2c(NCc3ccco3)nc(Cl)nc2c1Br [Compound 67, 6-((1R,2R)-2-aminocyclohexyl)-7-bromo-2-chloro-N-(furan-2-ylmethyl)thieno[3,2-d]pyrimidin-4-amine]
≤ 30 nM	≤ 30 nM	N[C@H]1CCCC[C@@H]1c1sc2c(NCc3ccco3)nc(Cl)nc2c1Br [Compound 68, 6-((1S,2S)-2-aminocyclohexyl)-7-bromo-2-chloro-N-(furan-2-ylmethyl)thieno[3,2-d]pyrimidin-4-amine]
> 1000 nM	> 1000 nM	N[C@@H]1CCCO[C@H]1c1sc2c(NCc3ccccc3)nc(Cl)nc2c1Br [Compound 70, 6-((2R,3R)-3-aminotetrahydro-2H-pyran-2-yl)-N-benzyl-7-bromo-2-chlorothieno[3,2-d]pyrimidin-4-amine]

The remaining lines, values behind:

Compound	IC50 [1]	IC50 (ATXN3 pre-mRNA)
N[C@H]1CCCO[C@@H]1c1sc2c(NCc3cccs3)cc(Cl)nc2c1Br [Compound 56, 2-((2S,3S)-3-aminotetrahydro-2H-pyran-2-yl)-3-bromo-5-chloro-N-(thiophen-2-ylmethyl)thieno[3,2-b]pyridin-7-amine]	300 to 1000 nM	30 to 300 nM
N[C@H]1CCCC[C@@H]1c1sc2c(NCc3cccs3)cc(Cl)nc2c1I [Compound 57, 2-((1S,2S)-2-aminocyclohexyl)-5-chloro-3-iodo-N-(thiophen-2-ylmethyl)thieno[3,2-b]pyridin-7-amine]	≤ 30 nM	≤ 30 nM
N[C@@H]1CCCC[C@H]1c1sc2c(NCc3cccs3)cc(Cl)nc2c1I [Compound 58, 2-((1R,2R)-2-aminocyclohexyl)-5-chloro-3-iodo-N-(thiophen-2-ylmethyl)thieno[3,2-b]pyridin-7-amine]	> 1000 nM	> 1000 nM
Cc1c([C@H]2OCCC[C@@H]2N)sc2c(NCc3ccccc3)nc(Cl)nc12 [Compound 63, 6-((2S,3S)-3-aminotetrahydro-2H-pyran-2-yl)-N-benzyl-2-chloro-7-methylthieno[3,2-d]pyrimidin-4-amine]	30 to 300 nM	30 to 300 nM
Cc1c([C@@H]2OCCC[C@H]2N)sc2c(NCc3ccccc3)nc(Cl)nc12 [Compound 64, 6-((2R,3R)-3-aminotetrahydro-2H-pyran-2-yl)-N-benzyl-2-chloro-7-methylthieno[3,2-d]pyrimidin-4-amine]	> 1000 nM	> 1000 nM
N[C@H]1CCCO[C@@H]1c1sc2c(NCc3ccccc3)nc(Cl)nc2c1Br [Compound 69, 6-((2S,3S)-3-aminotetrahydro-2H-pyran-2-yl)-N-benzyl-7-bromo-2-chlorothieno[3,2-d]pyrimidin-4-amine]	30 to 300 nM	≤ 30 nM
Cc1c([C@H]2CCCC[C@@H]2N)sc2c(NCc3cccs3)cc(Cl)nc12 [Compound 71, 2-((1S,2S)-2-aminocyclohexyl)-5-chloro-3-methyl-N-(thiophen-2-ylmethyl)thieno[3,2-b]pyridin-7-amine]	≤ 30 nM	≤ 30 nM
N[C@@H]1CCCCC[C@@H]1c1sc2c(NCc3cccs3)cc(Cl)nc2c1Br [Compound 72, 2-((1S,2R)-2-aminocycloheptyl)-3-bromo-5-chloro-N-(thiophen-2-ylmethyl)thieno[3,2-b]pyridin-7-amine]	> 1000 nM	> 1000 nM
N[C@H]1CCCCC[C@H]1c1sc2c(NCc3cccs3)cc(Cl)nc2c1Br [Compound 73, 2-((1R,2S)-2-aminocycloheptyl)-3-bromo-5-chloro-N-(thiophen-2-ylmethyl)thieno[3,2-b]pyridin-7-amine]	300 to 1000 nM	300 to 1000 nM
N[C@@H]1CCCCC[C@H]1c1sc2c(NCc3cccs3)cc(Cl)nc2c1Br [Compound 74, 2-((1R,2R)-2-aminocycloheptyl)-3-bromo-5-chloro-N-(thiophen-2-ylmethyl)thieno[3,2-b]pyridin-7-amine]	> 1000 nM	> 1000 nM
N[C@H]1CCCCC[C@@H]1c1sc2c(NCc3cccs3)cc(Cl)nc2c1Br [Compound 75, 2-((1S,2S)-2-aminocycloheptyl)-3-bromo-5-chloro-N-(thiophen-2-ylmethyl)thieno[3,2-b]pyridin-7-amine]	30 to 300 nM	30 to 300 nM
N[C@@H]1CCCCC[C@@H]1c1sc2c(NCc3cccs3)cc(Cl)nc2c1Cl [Compound 76, 2-((1S,2R)-2-aminocycloheptyl)-3,5-dichloro-N-(thiophen-2-ylmethyl)thieno[3,2-b]pyridin-7-amine]	> 1000 nM	> 1000 nM
N[C@H]1CCCCC[C@H]1c1sc2c(NCc3cccs3)cc(Cl)nc2c1Cl [Compound 77, 2-((1R,2S)-2-aminocycloheptyl)-3,5-dichloro-N-(thiophen-2-ylmethyl)thieno[3,2-b]pyridin-7-amine]	> 1000 nM	300 to 1000 nM
N[C@@H]1CCCCC[C@H]1c1sc2c(NCc3cccs3)cc(Cl)nc2c1Cl [Compound 78, 2-((1R,2R)-2-aminocycloheptyl)-3,5-dichloro-N-(thiophen-2-ylmethyl)thieno[3,2-b]pyridin-7-amine]	> 1000 nM	> 1000 nM
N[C@H]1CCCCC[C@@H]1c1sc2c(NCc3cccs3)cc(Cl)nc2c1Cl [Compound 79, 2-((1S,2S)-2-aminocycloheptyl)-3,5-dichloro-N-(thiophen-2-ylmethyl)thieno[3,2-b]pyridin-7-amine]	30 to 300 nM	30 to 300 nM
N[C@@H]1CCCCC[C@H]1c1cc2nc(Cl)cc(NCc3cccs3)c2s1 [Compound 80, 2-((1R,2R)-2-aminocycloheptyl)-5-chloro-N-(thiophen-2-ylmethyl)thieno[3,2-b]pyridin-7-amine]	> 1000 nM	> 1000 nM
Cc1c([C@H]2CCCCC[C@@H]2N)sc2c(NCc3cccs3)cc(Cl)nc12 [Compound 81, 2-((1S,2S)-2-aminocycloheptyl)-5-chloro-3-methyl-N-(thiophen-2-ylmethyl)thieno[3,2-b]pyridin-7-amine]	30 to 300 nM	30 to 300 nM
Cc1c([C@@H]2CCCCC[C@@H]2N)sc2c(NCc3cccs3)cc(Cl)nc12 [Compound 82, 2-((1R,2S)-2-aminocycloheptyl)-5-chloro-3-methyl-N-(thiophen-2-ylmethyl)thieno[3,2-b]pyridin-7-amine]	300 to 1000 nM	300 to 1000 nM
Cc1c([C@@H]2CCCCC[C@H]2N)sc2c(NCc3cccs3)cc(Cl)nc12 [Compound 83, 2-((1R,2R)-2-aminocycloheptyl)-5-chloro-3-methyl-N-(thiophen-2-ylmethyl)thieno[3,2-b]pyridin-7-amine]	> 1000 nM	> 1000 nM
Cc1c([C@H]2CCCCC[C@H]2N)sc2c(NCc3cccs3)cc(Cl)nc12 [Compound 84, 2-((1S,2R)-2-aminocycloheptyl)-5-chloro-3-methyl-N-(thiophen-2-ylmethyl)thieno[3,2-b]pyridin-7-amine]	> 1000 nM	> 1000 nM
N[C@@H]1CCCCC[C@@H]1c1cc2nc(Cl)cc(NCc3cccs3)c2s1 [Compound 88, 2-((1S,2R)-2-aminocycloheptyl)-5-chloro-N-(thiophen-2-ylmethyl)thieno[3,2-b]pyridin-7-amine]	> 1000 nM	> 1000 nM
